Key:
L1210 [1] = assay: Median survival time of treated to that of control after administration at 0.8 mg/kg intraperitoneally in BDF1 mice on day 1; assay type: functional, Mus musculus; conditions: route intraperitoneal
L1210 [2] = assay: Tested for survivors on day 5 after administration at 0.4 mg/kg intraperitoneally in mice on day 1; assay type: functional, Mus musculus; conditions: route intraperitoneal
L1210 [3] = assay: Tested for survivors on day 5 after administration at 12.8 mg/kg intraperitoneally in mice on day 1; assay type: functional, Mus musculus; conditions: route intraperitoneal
L1210 [4] = assay: Median survival time of treated to that of control after administration at 12.8 mg/kg intraperitoneally in BDF1 mice on day 1; assay type: functional, Mus musculus; conditions: route intraperitoneal
L1210 [5] = assay: Median survival time of treated to that of control after administration at 0.4 mg/kg intraperitoneally in BDF1 mice on day 1; assay type: functional, Mus musculus; conditions: route intraperitoneal
L1210 [6] = assay: Tested for survivors on day 5 after administration at 6.4 mg/kg intraperitoneally in mice on day 1; assay type: functional, Mus musculus; conditions: route intraperitoneal
L1210 [7] = assay: Average weight change after administration at 3.2 mg/kg intraperitoneally in mice on day 1; assay type: functional, Mus musculus; conditions: route intraperitoneal
L1210 [8] = assay: Median survival time of treated to that of control after administration at 1.6 mg/kg intraperitoneally in BDF1 mice on day 1; assay type: functional, Mus musculus; conditions: route intraperitoneal
L1210 [9] = assay: Median survival time of treated to that of control after administration at 6.4 mg/kg intraperitoneally in BDF1 mice on day 1; assay type: functional, Mus musculus; conditions: route intraperitoneal
Bacillus subtilis [10] = assay: Tested for antibacterial effect against Bacillus subtilis-8 at dose 25 ug/mL; assay type: functional
Bacillus subtilis [11] = assay: Tested for antibacterial effect against Bacillus subtilis-8 at dose 6.25 ug/mL; assay type: functional
L1210 [12] = assay: Median survival time of treated to that of control after administration at 3.2 mg/kg intraperitoneally in BDF1 mice on day 1; assay type: functional, Mus musculus; conditions: route intraperitoneal
L1210 [13] = assay: Average weight change after administration at 0.8 mg/kg intraperitoneally in mice on day 1; assay type: functional, Mus musculus; conditions: route intraperitoneal
L1210 [14] = assay: Average weight change after administration at 12.8 mg/kg intraperitoneally in mice on day 1; assay type: functional, Mus musculus; conditions: route intraperitoneal
L1210 [15] = assay: Tested for survivors on day 5 after administration at 0.8 mg/kg intraperitoneally in mice on day 1; assay type: functional, Mus musculus; conditions: route intraperitoneal
Bacillus subtilis [16] = assay: Tested for antibacterial effect against Bacillus subtilis-8 at dose 12.5 ug/mL; assay type: functional
L1210 [17] = assay: Tested for survivors on day 5 after administration at 3.2 mg/kg intraperitoneally in mice on day 1; assay type: functional, Mus musculus; conditions: route intraperitoneal
L1210 [18] = assay: Average weight change after administration at 0.4 mg/kg intraperitoneally in mice on day 1; assay type: functional, Mus musculus; conditions: route intraperitoneal
Bacillus subtilis [19] = assay: Tested for antibacterial effect against Bacillus subtilis-8 at dose 50 ug/mL; assay type: functional
L1210 [20] = assay: Average weight change after administration at 1.6 mg/kg intraperitoneally in mice on day 1; assay type: functional, Mus musculus; conditions: route intraperitoneal
L1210 [21] = assay: Tested for survivors on day 5 after administration at 1.6 mg/kg intraperitoneally in mice on day 1; assay type: functional, Mus musculus; conditions: route intraperitoneal
L1210 [22] = assay: Average weight change after administration at 6.4 mg/kg intraperitoneally in mice on day 1 in experiment 1; assay type: functional, Mus musculus; conditions: route intraperitoneal
L1210 [23] = assay: Average weight change after administration at 3.2 mg/kg intraperitoneally in mice on day 1 in experiment 1; assay type: functional, Mus musculus; conditions: route intraperitoneal
L1210 [24] = assay: Average weight change after administration at 0.8 mg/kg intraperitoneally in mice on day 1 in experiment 1; assay type: functional, Mus musculus; conditions: route intraperitoneal
L1210 [25] = assay: Average weight change after administration at 12.8 mg/kg intraperitoneally in mice on day 1 in experiment 2; assay type: functional, Mus musculus; conditions: route intraperitoneal
L1210 [26] = assay: Average weight change after administration from 1-9 days at 6.4 mg/kg intraperitoneally in BDF1 mice; assay type: functional, Mus musculus; conditions: route intraperitoneal
L1210 [27] = assay: Average weight change after administration from 1-9 days at 1.6 mg/kg intraperitoneally in BDF1 mice; assay type: functional, Mus musculus; conditions: route intraperitoneal
L1210 [28] = assay: Average weight change after administration from 1-9 days at 0.8 mg/kg intraperitoneally in BDF1 mice; assay type: functional, Mus musculus; conditions: route intraperitoneal
L1210 [29] = assay: Average weight change after administration at 25.6 mg/kg intraperitoneally in mice on day 1 in experiment 2; assay type: functional, Mus musculus; conditions: route intraperitoneal
L1210 [30] = assay: Average weight change after administration at 3.2 mg/kg intraperitoneally in mice on day 1 in experiment 2; assay type: functional, Mus musculus; conditions: route intraperitoneal
Bacillus subtilis [31] = assay: Tested for antibacterial effect against Bacillus subtilis-8 at dose 3.1 ug/mL; assay type: functional
L1210 [32] = assay: Average weight change after administration from 1-9 days at 3.2 mg/kg intraperitoneally in BDF1 mice; assay type: functional, Mus musculus; conditions: route intraperitoneal
L1210 [33] = assay: Average weight change after administration from 1-9 days at 12.8 mg/kg intraperitoneally in BDF1 mice; assay type: functional, Mus musculus; conditions: route intraperitoneal
L1210 [34] = assay: Average weight change after administration from 1-9 days at 0.4 mg/kg intraperitoneally in BDF1 mice; assay type: functional, Mus musculus; conditions: route intraperitoneal
L1210 [35] = assay: Average weight change after administration at 0.4 mg/kg intraperitoneally in mice on day 1 in experiment 1; assay type: functional, Mus musculus; conditions: route intraperitoneal
L1210 [36] = assay: Average weight change after administration at 1.6 mg/kg intraperitoneally in mice on day 1 in experiment 2; assay type: functional, Mus musculus; conditions: route intraperitoneal
L1210 [37] = assay: Average weight change after administration at 1.6 mg/kg intraperitoneally in mice on day 1 in experiment 1; assay type: functional, Mus musculus; conditions: route intraperitoneal
L1210 [38] = assay: Average weight change after administration at 51.2 mg/kg intraperitoneally in mice on day 1 in experiment 2; assay type: functional, Mus musculus; conditions: route intraperitoneal
L1210 [39] = assay: Average weight change after administration at 6.4 mg/kg intraperitoneally in mice on day 1 in experiment 2; assay type: functional, Mus musculus; conditions: route intraperitoneal
L1210 [40] = assay: Average weight change after administration at 12.8 mg/kg intraperitoneally in mice on day 1 in experiment 1; assay type: functional, Mus musculus; conditions: route intraperitoneal

Compound: C/C(=N\NC(=O)c1ccccc1)[C@]1(O)Cc2c(O)c3c(c(O)c2[C@@H](O[C@H]2C[C@H](O)[C@H](O)[C@H](C)O2)C1)C(=O)c1c(O)cccc1C3=O
- T/C (L1210 [1]): 93%
- Survivors (L1210 [2]): 6
- Survivors (L1210 [3]): 6
- T/C (L1210 [4]): 114%
- T/C (L1210 [5]): 100%
- Survivors (L1210 [6]): 6
- Average weight change (L1210 [7]): 1.9
- T/C (L1210 [8]): 100%
- T/C (L1210 [9]): 107%
- Inhibition zone (Bacillus subtilis [10]): 13.8 mm
- Inhibition zone (Bacillus subtilis [11]): 10.3 mm
- T/C (L1210 [12]): 93%
- Average weight change (L1210 [13]): 1.5
- Average weight change (L1210 [14]): -0.3
- Survivors (L1210 [15]): 6
- Inhibition zone (Bacillus subtilis [16]): 12.8 mm
- Survivors (L1210 [17]): 6
- Average weight change (L1210 [18]): 2.3
- Inhibition zone (Bacillus subtilis [19]): 15 mm
- Average weight change (L1210 [20]): 2
- Survivors (L1210 [21]): 6

Compound: CC(=O)[C@]1(O)Cc2c(O)c3c(c(O)c2[C@@H](O[C@H]2C[C@H](O)[C@H](O)[C@H](C)O2)C1)C(=O)c1c(O)cccc1C3=O
- Average weight change (L1210 [22]): -1.1
- Average weight change (L1210 [23]): -0.9
- Average weight change (L1210 [24]): 1.2
- Average weight change (L1210 [25]): 0.3
- Average weight change (L1210 [26]): 2.4
- Average weight change (L1210 [27]): 0.6
- Average weight change (L1210 [28]): 2.3
- Average weight change (L1210 [29]): -1.2
- Inhibition zone (Bacillus subtilis [10]): 21.5 mm
- Inhibition zone (Bacillus subtilis [11]): 19.5 mm
- Average weight change (L1210 [30]): 0.2
- Inhibition zone (Bacillus subtilis [31]): 17.2 mm
- Average weight change (L1210 [32]): -0.3
- Average weight change (L1210 [33]): -1.6
- Average weight change (L1210 [34]): 0.6
- Average weight change (L1210 [35]): -0.8
- Average weight change (L1210 [36]): -0.6
- Average weight change (L1210 [37]): -0.8
- Average weight change (L1210 [38]): -1.9
- Inhibition zone (Bacillus subtilis [16]): 21.3 mm
- Average weight change (L1210 [39]): 0.7
- Average weight change (L1210 [40]): -0.4
- Inhibition zone (Bacillus subtilis [19]): 21.5 mm
